According to patent US7932262B2 (Novartis AG, priority 2006, dated 2011):
Like-named read-outs stand apart in the source and are kept apart here.

What was measured:
[1] = target: T1, PDK1 kinase (Homo sapiens, UniProt O15530); experiment: PDK1 Kinase Alpha Screen Assay; assay type: biochemical
T1 sequence (O15530 1-556): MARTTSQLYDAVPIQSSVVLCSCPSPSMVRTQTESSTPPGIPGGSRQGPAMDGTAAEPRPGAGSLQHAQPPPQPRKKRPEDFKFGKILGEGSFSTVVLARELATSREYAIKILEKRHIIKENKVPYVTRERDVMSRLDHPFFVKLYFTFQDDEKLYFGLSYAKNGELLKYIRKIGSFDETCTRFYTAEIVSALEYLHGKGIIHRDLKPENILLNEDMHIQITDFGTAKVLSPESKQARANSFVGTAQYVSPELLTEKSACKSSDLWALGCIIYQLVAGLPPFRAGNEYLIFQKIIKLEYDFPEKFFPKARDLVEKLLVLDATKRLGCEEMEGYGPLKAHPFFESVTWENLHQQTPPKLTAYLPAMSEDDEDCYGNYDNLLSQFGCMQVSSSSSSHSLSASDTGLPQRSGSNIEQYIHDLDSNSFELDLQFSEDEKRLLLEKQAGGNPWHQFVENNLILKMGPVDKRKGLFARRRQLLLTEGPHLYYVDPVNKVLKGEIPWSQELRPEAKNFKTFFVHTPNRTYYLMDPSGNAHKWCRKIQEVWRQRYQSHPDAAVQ
Summary of the method: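 PDK1, 10 uM ATP, 50 nM biotin-PDK1-4 peptide; 50 mM Tris pH 7.5, 10 mM MgCl2, 0.1% BSA, 0.01% Tween-20, 2 mM DTT, 2.5% DMSO; 3-18 h. EDTA stop; AlphaScreen, phospho-Ser/Thr antibody, overnight RT.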

[2] = test system: A2780 cells; experiment: Cell Proliferation Assay (Cell Titer Glo), A2780; assay type: cell-based; conditions: Homo sapiens, read-out: CPEC50 A2780
Summary of the method: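 Following a 3-day compound exposure (37° C., 5% CO2) of A2780 or PC3MM cells plated at 1000 per well, viability was measured by Cell Titer Glo luminescence in fresh medium, read 10 min after reagent addition.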

[3] = test system: PC3MM cells; experiment: Cell Proliferation Assay (Cell Titer Glo), PC3MM; assay type: cell-based; conditions: read-out: CPEC50 PC3MM
Protocol: IV. Cell Proliferation Assay Protocol:
A2780, PC-3, or PC3MM cells were seeded at 1000 cells/well in 100 μL/well (10.000 cells/mL) growth media in 96-well plates. Cells were allowed to adhere to the bottom of plates for 3-5 hours in a 37° C. 5% CO2 incubator. Compounds were dissolved in DMSO and then transferred to the cell plates. The cells were incubated with the compounds for 3 days in a 37° C. 5% CO2 incubator. The growth medium containing the compounds was then removed from the cells and fresh medium was added, followed by 100 μL of Cell Titer Glo assay reagent (Promega). This mixture was shaken for 1 minute and then incubated without shaking for 10 minutes. Activity determinations for the compounds were made by detection on a Trilux Instrument.

[4] = PDK1 Kinase Alpha Screen Assay, read-out: PDK1 IC50
[5] = Cell Proliferation Assay, A2780
[6] = Cell Proliferation Assay, PC3MM
[7] = cell proliferation, A2780 cells
[8] = cell proliferation, PC3MM cells

SMILES	IC50 [1, 4]	EC50 [2, 5]	EC50 [3, 6]	EC50 [2, 7]	EC50 [3, 8]	IC50 ([1]; head of the second part of Table 4: BV11261, read-out: PDK1 BV11261)	EC50 ([3]; PC3MM cells)
CN1CCC(Oc2cc3nc(Nc4ccc(N5CCOCC5)cc4)ncc3cc2-c2nccs2)CC1 [Compound 653, 7-(1-methylpiperidin-4-yloxy)-N-(4-morpholinophenyl)-6-(thiazol-2-yl)quinazolin-2-amine]	< 5 µM	< 5 µM	< 5 µM	–	–	–	–
NS(=O)(=O)c1ccc(Nc2ncc3cccc(OC4CN5CCC4CC5)c3n2)cc1 (stereo not shown) [Compound 722, 4-(8-(quinuclidin-3-yloxy)quinazolin-2-ylamino)benzenesulfonamide]	< 5 µM	–	–	< 5 µM	< 5 µM	–	–
CN1CCC(Oc2cccc3cnc(Nc4ccc(S(N)(=O)=O)cc4)nc23)CC1 [Compound 724, 4-(8-(1-methylpiperidin-4-yloxy)quinazolin-2-ylamino)benzenesulfonamide]	< 5 µM	–	–	< 5 µM	< 5 µM	–	–
NS(=O)(=O)c1ccc(Nc2ncc3cccc(O[C@@H]4CCNC4)c3n2)cc1 [Compound 726, (R)-4-(8-(pyrrolidin-3-yloxy)quinazolin-2-ylamino)benzenesulfonamide]	< 5 µM	–	–	< 5 µM	< 5 µM	–	–
CN1CC[C@@H](Oc2cccc3cnc(Nc4ccc(S(N)(=O)=O)cc4)nc23)C1 [Compound 727, (R)-4-(8-(1-methylpyrrolidin-3-yloxy)quinazolin-2-ylamino)benzenesulfonamide]	< 5 µM	–	–	< 5 µM	< 5 µM	–	–
CC(=O)c1ccc(-c2cccc3cnc(Nc4ccc(S(N)(=O)=O)cc4)nc23)cc1 [Compound 731, 4-(8-(4-acetylphenyl)quinazolin-2-ylamino)benzenesulfonamide]	< 5 µM	–	–	5 to 10 µM	< 5 µM	–	–
CN1CCCC(Oc2cccc3cnc(Nc4ccc(S(N)(=O)=O)cc4)nc23)C1 (stereo not shown) [Compound 733, 4-(8-(1-methylpiperidin-3-yloxy)quinazolin-2-ylamino)benzenesulfonamide]	< 5 µM	–	–	< 5 µM	< 5 µM	–	–
CS(=O)(=O)Nc1cccc(-c2cccc3cnc(Nc4ccc(S(N)(=O)=O)cc4)nc23)c1 [Compound 736, 4-(8-(3-(methylsulfonamido)phenyl)quinazolin-2-ylamino)benzenesulfonamide]	< 5 µM	–	–	< 5 µM	< 5 µM	–	–
NS(=O)(=O)c1ccc(Nc2ncc3cccc(-c4cccc(S(N)(=O)=O)c4)c3n2)cc1 [Compound 738, 3-(2-(4-sulfamoylphenylamino)quinazolin-8-yl)benzenesulfonamide]	< 5 µM	–	–	< 5 µM	< 5 µM	–	–
NS(=O)(=O)c1ccc(Nc2ncc3cccc(-c4ccc5c(c4)OCO5)c3n2)cc1 [Compound 739, 4-(8-(benzo[d][1,3]dioxol-5-yl)quinazolin-2-ylamino)benzenesulfonamide]	< 5 µM	–	–	< 5 µM	< 5 µM	–	–
NS(=O)(=O)c1ccc(Nc2ncc3cccc(-c4ccnc(F)c4)c3n2)cc1 [Compound 741, 4-(8-(2-fluoropyridin-4-yl)quinazolin-2-ylamino)benzenesulfonamide]	< 5 µM	–	–	< 5 µM	< 5 µM	–	–
CS(=O)(=O)Nc1cccc(-c2ccc3cnc(Nc4ccc(S(N)(=O)=O)cc4)nc3c2)c1 [Compound 788, 4-(7-(3-(methylsulfonamido)phenyl)quinazolin-2-ylamino)benzenesulfonamide]	10 to 25 µM	–	–	–	10 to 25 µM	–	–

Further lines, results first:

IC50 [1, 4]	EC50 [2, 5]	EC50 [3, 6]	EC50 [2, 7]	EC50 [3, 8]	IC50 ([1]; head of the second part of Table 4: BV11261, read-out: PDK1 BV11261)	EC50 ([3]; PC3MM cells)	SMILES
< 5 µM	< 5 µM	< 5 µM	–	–	–	–	c1cc(N2CCOCC2)ccc1Nc1ncc2cc(-c3cnoc3)c(OC3CCNCC3)cc2n1 [Compound 652, 6-(isoxazol-4-yl)-N-(4-morpholinophenyl)-7-(piperidin-4-yloxy)quinazolin-2-amine]
< 5 µM	–	–	< 5 µM	< 5 µM	–	–	NC(=O)c1ccc(Nc2ncc3cccc(OC4CCNCC4)c3n2)cc1 [Compound 717, 4-(8-(piperidin-4-yloxy)quinazolin-2-ylamino)benzamide]
< 5 µM	–	–	< 5 µM	< 5 µM	–	–	NS(=O)(=O)c1ccc(Nc2ncc3cccc(O[C@H]4CCNC4)c3n2)cc1 [Compound 721, (S)-4-(8-(pyrrolidin-3-yloxy)quinazolin-2-ylamino)benzenesulfonamide]
< 5 µM	–	–	< 5 µM	< 5 µM	–	–	CN1CC[C@H](Oc2cccc3cnc(Nc4ccc(S(N)(=O)=O)cc4)nc23)C1 [Compound 723, (S)-4-(8-(1-methylpyrrolidin-3-yloxy)quinazolin-2-ylamino)benzenesulfonamide]
< 5 µM	–	–	< 5 µM	< 5 µM	–	–	NS(=O)(=O)c1ccc(Nc2ncc3cccc(-c4ccc(-c5ccn[nH]5)cc4)c3n2)cc1 [Compound 732, 4-(8-(4-(1H-pyrazol-5-yl)phenyl)quinazolin-2-ylamino)benzenesulfonamide]
< 5 µM	–	–	< 5 µM	< 5 µM	–	–	NC(=O)c1cccc(-c2cccc3cnc(Nc4ccc(S(N)(=O)=O)cc4)nc23)c1 [Compound 734, 3-(2-(4-sulfamoylphenylamino)quinazolin-8-yl)benzamide]
< 5 µM	–	–	< 5 µM	< 5 µM	–	–	CS(=O)(=O)c1cccc(-c2cccc3cnc(Nc4ccc(S(N)(=O)=O)cc4)nc23)c1 [Compound 735, 4-(8-(3-(methysulfonyl)phenyl)quinazolin-2-ylamino)benzenesulfonamide]
< 5 µM	–	–	< 5 µM	< 5 µM	–	–	CC(=O)Nc1cccc(-c2cccc3cnc(Nc4ccc(S(N)(=O)=O)cc4)nc23)c1 [Compound 737, N-(3-(2-(4-sulfamoylphenylamino)quinazolin-8-yl)phenyl)acetamide]
< 5 µM	–	–	5 to 10 µM	< 5 µM	–	–	NC(=O)c1ccc(-c2cccc3cnc(Nc4ccc(S(N)(=O)=O)cc4)nc23)cc1 [Compound 740, 4-(2-(4-sulfamoylphenylamino)quinazolin-8-yl)benzamide]
< 5 µM	–	–	5 to 10 µM	< 5 µM	–	–	NS(=O)(=O)c1ccc(Nc2ncc3cccc(-c4cccnc4)c3n2)cc1 [Compound 742, 4-(8-(pyridin-3-yl)quinazolin-2-ylamino)benzenesulfonamide]
< 5 µM	–	–	5 to 10 µM	< 5 µM	–	–	NS(=O)(=O)c1ccc(Nc2ncc3cccc(-c4ccncc4)c3n2)cc1 [Compound 743, 4-(8-(pyridin-4-yl)quinazolin-2-ylamino)benzenesufonamide]
< 5 µM	–	–	< 5 µM	< 5 µM	–	–	COCCNc1cc(-c2cccc3cnc(Nc4ccc(S(N)(=O)=O)cc4)nc23)ccn1 [Compound 745, 4-(8-(2-(2-methoxyethylamino)pyridin-4-yl)quinazolin-2-ylamino)benzenesulfonamide]
< 5 µM	–	–	5 to 10 µM	< 5 µM	–	–	CC(=O)NCCNc1cc(-c2cccc3cnc(Nc4ccc(S(N)(=O)=O)cc4)nc23)ccn1 [Compound 746, N-(2-(4-(2-(4-sulfamoylphenylamino)quinazolin-8-yl)pyridin-2-ylamino)ethyl)acetamide]
< 5 µM	–	–	–	< 5 µM	–	–	NC(=O)c1ccccc1-c1ccc2cnc(Nc3ccc(S(N)(=O)=O)cc3)nc2c1 [Compound 784, 2-(2-(4-sulfamoylphenylamino)quinazolin-7-yl)benzamide]
5 to 10 µM	–	–	–	5 to 10 µM	–	–	CC(=O)Nc1cccc(-c2ccc3cnc(Nc4ccc(S(N)(=O)=O)cc4)nc3c2)c1 [Compound 785, N-(3-(2-(4-sulfamoylphenylamino)quinazolin-7-yl)phenyl)acetamide]
< 5 µM	–	–	–	< 5 µM	–	–	CS(=O)(=O)c1cccc(-c2ccc3cnc(Nc4ccc(S(N)(=O)=O)cc4)nc3c2)c1 [Compound 787, 4-(7-(3-(methylsulfonyl)phenyl)quinazolin-2-ylamino)benzenesulfonamide]
–	–	–	–	–	< 5 µM	< 5 µM	COC(=O)Nc1cc(CN2CCOCC2)cc(Nc2ncc3ccc(-c4cnn(CCC(C)C)c4)c(OC)c3n2)c1 [Compound 1042, methyl 3-(7-(1-isopentyl-1H-pyrazol-4-yl)-8-methoxyquinazolin-2-ylamino)-5-(morpholinomethyl)phenylcarbamate]
